This note sets out measurements from US20130012548A1, “DEUTERIUM-SUBSTITUTED OMEGA-DIPHENYLUREA AND DERIVATIVES THEREOF AND PHARMACEUTICAL COMPOSITIONS COMPRISING THE COMPOUNDS” (SUZHOU ZELGEN BIOPHARMACEUTICAL CO., LTD., priority 2010, published 2013).

Data set [1] can be described thus: Pharmacokinetic evaluation in rats. It is filed as in vivo. Particulars: Sprague-Dawley, rat, serum, male SD rats, single oral dose 3 mg/kg, in 30% PEG400; for CL/F: read-out: apparent clearance (converted); for AUC(0-inf): read-out: area under the curve (AUC0-∞); for half-life: read-out: half-life (T1/2) (converted). As to the method:
8 male Sprague-Dawley rats (7-8 weeks old and body weight about 210 g) were divided into two groups, 4 in each group (rat No.: control group was 13-16; experimental group was 9-12), and orally administrated a single dose at 3 mg/kg of either compound: (a) the undeuterated N-(4-chloro-3-(trifluoromethyl)phenyl)-N′-(4-(2-(N-methyl-aminoformyl)-4-pyridyloxy)phenyl)urea (control compound CM4306) or (b) N-(4-chloro-3-(trifluoromethyl)phenyl)-N′-(4-(2-(N-(methyl-d3)-aminoformyl)-4-pyridyloxy)phenyl)urea (Compound CM4307 of the invention) prepared in Example 1. The pharmacokinetics differences were compared.
The rats were fed with the standard feed, given water and chlordiazepoxide. Chlordiazepoxide was stopped at the last night before experiment, and given again two hours after the administration of the compound. The rats were fasted for 16 hours before the test. The compound was dissolved in 30% PEG400. The time for collecting orbital blood was 0.083, 0.25, 0.5, 1, 2, 4, 6, 8 and 24 hours after administrating the compounds.
The rats were anaesthetized briefly by inhaling ether. A 300 μL orbital blood sample was collected into the tubes containing a 30 μl 1% heparin saline solution. The tubes were dried overnight at 60° C. before being used. After the blood samples were sequentially collected, the rats were anaesthetized by ether and sacrificed.
After the blood samples were collected, the tubes were gently reversed at least five times immediately to mix the contents sufficiently, and placed on the ice. The blood samples were centrifuged at 4° C. at 5000 rpm for 5 minutes to separate the serum and red blood cells. 100 μL serum was removed to a clean plastic centrifugal tube by pipettor, and the name of the compound and time point were labeled on the tube. Serum was stored at −80° C. before LC-MS analysis.

For data set [2], the system named is Human Hepatocellular Carcinoma SMMC-7721. Put plainly: Inhibition of tumor growth of SMMC-7721 in nude mice xenograft model. The data set is classed as in vivo, Balb/c nu/nu nude mice. The note with it: 100 mg/kg po qd × 2 weeks. As to the method:
70 Balb/c nu/nu nude mice, 6 weeks old, female, were bought from Shanghai Experimental Animal Resource Center (Shanghai B&K Universal Group Limited).
SMMC-7721 cells were commercially available from Shanghai Institutes for Biological Science, CAS (Shanghai, China).
The establishment of tumor nude mice xenograft model: SMMC-7721 cells in logarithmic growth period were cultured. After cell number was counted, the cells were suspended in 1×PBS, and the number of the cell in suspension was adjusted to 1.5×10^7/ml. The tumor cells were inoculated under the skin of right armpit of nude mice with a 1 ml syringe, 3×10^6/0.2 ml/mice. 70 nude mice were inoculated in total.
When the tumor size reached 30-130 mm^3, 58 mice were divided randomly into different groups. […]
Animal body weight and tumor size were tested twice a week during the experiment. Clinical symptoms were recorded every day. At the end of the administration, the tumor size was recorded by taking pictures. […]
The formula for calculating the tumor volume (TV) is: TV=a×b^2/2, wherein a, b independently represent the length and the breadth of the tumor. The formula for calculating the relative tumor volume (RTV) is: RTV=Vt/V0, wherein V0 is the tumor volume at the beginning of the administration, and Vt is the tumor […] when measured. […]

For the compound `CNC(=O)c1cc(Oc2ccc(NC(=O)Nc3ccc(Cl)c(C(F)(F)F)c3)cc2)ccn1` [CM4306, N-(4-chloro-3-(trifluoromethyl)phenyl)-N′-(4-(2-(N-methylaminoformyl)-4-pyridyloxy)phenyl)urea, reference compound], in data set [1], the CL/F is 6.83 mL/min/kg, the AUC(0-inf) stood at 7330 ± 336 ng·h/mL and the half-life was 516 ± 84 min.

Turning to `[2H]C([2H])([2H])NC(=O)c1cc(Oc2ccc(NC(=O)Nc3ccc(Cl)c(C(F)(F)F)c3)cc2)ccn1` [CM4307, N-(4-chloro-3-(trifluoromethyl)phenyl)-N′-(4-(2-(N-(methyl-d3)aminoformyl)-4-pyridyloxy)phenyl)urea], in data set [1], the CL/F is 4.58 mL/min/kg, the AUC(0-inf) amounted to 11300 ± 2470 ng·h/mL and the half-life is 678 ± 126 min. The “increase of relative value of tumor inhibition compared with CM4306 (32.2%/19.6%−1)” value in data set [2] is “about 60%”.
